From US20080058330A1, “Compounds and Combinations Thereof for Inhibiting Beta-Amyloid Production and Methods of Use Thereof” (Roskamp Research LLC, priority 2006, published 2008)

Experiments:
[1] = tested on: 7W WT APP751 CHO cells; experiment: Screening of dihydropyridine compounds (Maybridge), Aβ1-40 and Aβ1-42 ELISA (Example 2); assay type: cell-based, Chinese hamster; conditions: 30 μM, 24 hours (FIG. 5A, 5B)
Method: (§1) Dihydropyridine compounds were obtained from Maybridge (England). Each compound was dissolved in DMSO. 7W WT APP751 CHO cells overexpressing APP751 were plated into 96-well culture plates in 200 μL of culture medium. Each compound from the library was added to confluent cells to a final concentration of 30 μM. After 24 hours of treatment, culture medium was collected and dissolved 10-fold and 2-fold for measuring the level of Aβ1-40 and Aβ1-42, respectively. Aβ1-40 and Aβ1-42 were determined using commercially available ELISAs (Biosource, CA), following the recommendations of the manufacturer.

[2] = tested on: 7W WT APP751 CHO cells; experiment: Screening of NF-kB activation inhibitors, Aβ1-40 and Aβ1-42 ELISA (Example 3); assay type: cell-based, Chinese hamster; conditions: 24 hours (FIG. 6)
Method: as §1, with “Each compound” for “Dihydropyridine compounds were obtained from Maybridge (England). Each compound”, “concentration of 500 nM, 1 μM, 5 μM, 10 μM and/or 30 μM.” for “concentration of 30 μM.”

COC(=O)C1=C(C)NC(C)=C(C(=O)OC)C1c1ccc(-c2ccsc2C(=O)OC)o1 [SEW 02070, dimethyl 4-{5-[2-(methoxycarbonyl)-3-thienyl]-2-furyl}-2,6-dimethyl-1,4-dihydropyridine-3,5-dicarboxylate]
significantly decreased: concentration of Aβ1-40 compared to controls [1] | concentration of total β-amyloid (Aβ1-40+Aβ1-42) compared to controls [1]

NC(=O)Nc1sc(-c2ccc(F)cc2)cc1C(N)=O [IKK-2 Inhibitor IV]
significantly decreased: concentration of Aβ1-40 compared to controls ([2]; 500 nM) | concentration of Aβ1-42 compared to controls ([2]; 500 nM) | concentration of total β-amyloid compared to controls ([2]; 500 nM) | concentration of Aβ1-40 compared to controls ([2]; 5 μM) | concentration of Aβ1-42 compared to controls ([2]; 5 μM) | concentration of total β-amyloid compared to controls ([2]; 5 μM)

CCOC(=O)C1=C(C)NC(C)=C(C(=O)OCC)C1c1ccc(OC)cc1Cl [RJC 03413, diethyl 4-(2-chloro-4-methoxyphenyl)-2,6-dimethyl-1,4-dihydro-3,5-pyridinedicarboxylate]
significantly decreased: concentration of Aβ1-40 compared to controls [1] | concentration of total β-amyloid (Aβ1-40+Aβ1-42) compared to controls [1]

COC(=O)C1=C(C)NC(C)=C(C(=O)OC)C1c1ccc(Cl)c(Cl)c1 [JFD 03293, dimethyl 4-(3,4-dichlorophenyl)-2,6-dimethyl-1,4-dihydropyridine-3,5-dicarboxylate]
significantly decreased: concentration of Aβ1-40 compared to controls [1] | concentration of Aβ1-42 compared to controls [1] | concentration of total β-amyloid (Aβ1-40+Aβ1-42) compared to controls [1]

CCOC(=O)C1=C(C)NC(C)=C(C(=O)OCC)C1c1ccc(C)cc1 [JFD 03282, diethyl 2,6-dimethyl-4-(4-methylphenyl)-1,4-dihydropyridine-3,5-dicarboxylate]
significantly decreased: concentration of Aβ1-40 compared to controls [1] | concentration of Aβ1-42 compared to controls [1] | concentration of total β-amyloid (Aβ1-40+Aβ1-42) compared to controls [1]

CCOC(=O)C1=C(C)NC(C)=C(C(=O)OCC)C1c1ccc(F)cc1 [JFD 03318, diethyl 4-(4-fluorophenyl)-2,6-dimethyl-1,4-dihydropyridine-3,5-dicarboxylate]
significantly decreased: concentration of Aβ1-40 compared to controls [1] | concentration of Aβ1-42 compared to controls [1] | concentration of total β-amyloid (Aβ1-40+Aβ1-42) compared to controls [1]

CCOC(=O)C1=C(C)NC(C)=C(C(=O)OCC)C1c1ccccc1Cl [JFD 03305, diethyl 4-(2-chlorophenyl)-2,6-dimethyl-1,4-dihydropyridine-3,5-dicarboxylate]
significantly decreased: concentration of Aβ1-40 compared to controls [1] | concentration of Aβ1-42 compared to controls [1] | concentration of total β-amyloid (Aβ1-40+Aβ1-42) compared to controls [1]

Nc1ccc2ncnc(NCCc3ccc(Oc4ccccc4)cc3)c2c1 [6-amino-4-(4-phenoxyphenylethylamino)quinazoline]
significantly decreased: concentration of Aβ1-40 compared to controls ([2]; 500 nM) | concentration of Aβ1-42 compared to controls ([2]; 500 nM) | concentration of total β-amyloid compared to controls ([2]; 500 nM) | concentration of Aβ1-40 compared to controls ([2]; 5 μM) | concentration of Aβ1-42 compared to controls ([2]; 5 μM) | concentration of total β-amyloid compared to controls ([2]; 5 μM)

CC1=C(C#N)C(c2ccc(Cl)c(Cl)c2)C(C#N)=C(C)N1 [JFD 03292, 4-(3,4-dichlorophenyl)-2,6-dimethyl-1,4-dihydropyridine-3,5-dicarbonitrile]
significantly decreased: concentration of Aβ1-40 compared to controls [1] | concentration of total β-amyloid (Aβ1-40+Aβ1-42) compared to controls [1]

CCOC(=O)C1=C(C)NC(C)=C(C(=O)OCC)C1c1ccccc1[N+](=O)[O-] [JFD 03311, diethyl 2,6-dimethyl-4-(2-nitrophenyl)-1,4-dihydropyridine-3,5-dicarboxylate]
significantly decreased: concentration of Aβ1-40 compared to controls [1] | concentration of total β-amyloid (Aβ1-40+Aβ1-42) compared to controls [1]

O=C1CC(c2ccccc2)CC(=O)N1c1ccc(Oc2ccc(Cl)cc2)cc1 [PD 00463, 1-[4-(4-chlorophenoxy)phenyl]-4-phenyldihydropyridine-2,6(1H,3H)-dione]
significantly decreased: concentration of Aβ1-40 compared to controls [1] | concentration of Aβ1-42 compared to controls [1] | concentration of total β-amyloid (Aβ1-40+Aβ1-42) compared to controls [1]

O=C1C=C(c2ccccc2)CN(C2CCCCC2)C1=O [HTS 01512, 1-cyclohexyl-5-phenyl-1,6-dihydro-2,3-pyridinedione]
significantly decreased: concentration of Aβ1-40 compared to controls [1] | concentration of Aβ1-42 compared to controls [1] | concentration of total β-amyloid (Aβ1-40+Aβ1-42) compared to controls [1]

C=C1C(=O)O[C@@H]2C[C@@]3(C)CCCC(=C)[C@@H]3C[C@H]12 [isohelenin]
significantly decreased: concentration of Aβ1-40 compared to controls ([2]; 5 μM) | concentration of Aβ1-42 compared to controls ([2]; 5 μM) | concentration of total β-amyloid compared to controls ([2]; 5 μM) | concentration of Aβ1-40 compared to controls ([2]; 10 μM) | concentration of Aβ1-42 compared to controls ([2]; 10 μM) | concentration of total β-amyloid compared to controls ([2]; 10 μM)

CCOC(=O)C1=C(C)NC(C)=C(C(=O)OCC)C1c1ccc(-c2ccccc2C(F)(F)F)o1 [RJC 03405, diethyl 2,6-dimethyl-4-{5-[2-(trifluoromethyl)phenyl]-2-furyl}-1,4-dihydro-3,5-pyridinedicarboxylate]
significantly decreased: concentration of Aβ1-40 compared to controls [1] | concentration of total β-amyloid (Aβ1-40+Aβ1-42) compared to controls [1]

N#Cc1c(-c2cccs2)cc(-c2ccccc2)[nH]c1=O [HTS 10306, 2-oxo-6-phenyl-4-(2-thienyl)-1,2-dihydro-3-pyridinecarbonitrile]
significantly decreased: concentration of Aβ1-40 compared to controls [1] | concentration of Aβ1-42 compared to controls [1] | concentration of total β-amyloid (Aβ1-40+Aβ1-42) compared to controls [1]

CCOC(=O)C1=C(C)NC(C)=C(C(=O)OCC)C1c1cccc([N+](=O)[O-])c1 [XBX 00343, diethyl 2,6-dimethyl-4-(3-nitrophenyl)-1,4-dihydropyridine-3,5-dicarboxylate]
significantly decreased: concentration of Aβ1-40 compared to controls [1] | concentration of total β-amyloid (Aβ1-40+Aβ1-42) compared to controls [1]

COC(=O)C1=C(C)NC(C)=C(C(=O)OCCCN2CCC(c3ccccc3)(c3ccccc3)CC2)[C@H]1c1cccc([N+](=O)[O-])c1.Cl [(S)-(+)-niguldipine]
significantly decreased: concentration of Aβ1-40 compared to controls ([2]; 1 μM) | concentration of Aβ1-42 compared to controls ([2]; 1 μM) | concentration of total β-amyloid compared to controls ([2]; 1 μM) | concentration of Aβ1-40 compared to controls ([2]; 5 μM) | concentration of Aβ1-42 compared to controls ([2]; 5 μM) | concentration of total β-amyloid compared to controls ([2]; 5 μM) | concentration of Aβ1-40 compared to controls ([2]; 30 μM) | concentration of Aβ1-42 compared to controls ([2]; 30 μM) | concentration of total β-amyloid compared to controls ([2]; 30 μM)

C=C1C(=O)[C@@]23[C@H](O)C[C@@H]4C(C)(C)CC[C@H](O)[C@@]4(CO)[C@@H]2CC[C@@H]1[C@H]3O [kamebakaurin]
significantly decreased: concentration of Aβ1-40 compared to controls ([2]; 10 μM) | concentration of Aβ1-42 compared to controls ([2]; 10 μM) | concentration of total β-amyloid compared to controls ([2]; 10 μM) | concentration of Aβ1-40 compared to controls ([2]; 30 μM) | concentration of Aβ1-42 compared to controls ([2]; 30 μM) | concentration of total β-amyloid compared to controls ([2]; 30 μM)

COC(=O)C1=C(C)NC(C)=C(C(=O)OCCCN2CCC(c3ccccc3)(c3ccccc3)CC2)[C@@H]1c1cccc([N+](=O)[O-])c1.Cl [R-niguldipine]
significantly decreased: concentration of Aβ1-40 compared to controls ([2]; 1 μM) | concentration of Aβ1-42 compared to controls ([2]; 1 μM) | concentration of total β-amyloid compared to controls ([2]; 1 μM) | concentration of Aβ1-40 compared to controls ([2]; 5 μM) | concentration of Aβ1-42 compared to controls ([2]; 5 μM) | concentration of total β-amyloid compared to controls ([2]; 5 μM) | concentration of Aβ1-40 compared to controls ([2]; 30 μM) | concentration of Aβ1-42 compared to controls ([2]; 30 μM) | concentration of total β-amyloid compared to controls ([2]; 30 μM)

CC1=C(O)C(=O)C=C2C1=CC=C1[C@@]2(C)CC[C@@]2(C)[C@@H]3C[C@](C)(C(=O)O)CC[C@]3(C)CC[C@]12C [celastrol]
significantly decreased: concentration of Aβ1-40 compared to controls ([2]; 500 nM) | concentration of Aβ1-42 compared to controls ([2]; 500 nM) | concentration of total β-amyloid compared to controls ([2]; 500 nM) | concentration of Aβ1-40 compared to controls ([2]; 5 μM) | concentration of Aβ1-42 compared to controls ([2]; 5 μM) | concentration of total β-amyloid compared to controls ([2]; 5 μM)

C[C@@H]1CC[C@H]2[C@@H](C)C(=O)O[C@@H]3O[C@@]4(C)CC[C@@H]1[C@]32OO4 [artemisinin]
significantly decreased: concentration of Aβ1-40 compared to controls ([2]; 1 μM) | concentration of Aβ1-42 compared to controls ([2]; 1 μM) | concentration of total β-amyloid compared to controls ([2]; 1 μM) | concentration of Aβ1-40 compared to controls ([2]; 30 μM) | concentration of Aβ1-42 compared to controls ([2]; 30 μM) | concentration of total β-amyloid compared to controls ([2]; 30 μM)
